This passage reports melting point results from patent US6878705B2 (dated 2005).

The structures appear in SMILES notation.

Regarding `Cn1cc(C(=O)NCc2ccc(Cl)cc2)c(=O)c2cc(CN3CCOCC3)oc21`, the melting point was 211 to 212 °C.

Consider `CN(Cc1cc2c(=O)c(C(=O)NCc3ccc(C(F)(F)F)cc3)cn(C)c2o1)C[C@@H](O)c1ccco1`, for which the melting point was in the range of 113 to 115 °C.

As for `O=C(NCc1ccc(Cl)cc1)c1cn(CCc2ccccc2)c2oc(CN3CCOCC3)cc2c1=O`, the melting point was 150 to 153 °C. The compound `CCN(CC)CCn1cc(C(=O)NCc2ccc(Cl)cc2)c(=O)c2cc(CN3CCOCC3)oc21` gave a melting point of 131 to 134 °C. Regarding `CC(O)CNCc1cc2c(=O)c(C(=O)NCc3ccc(Cl)cc3)cn(C)c2o1` (stereo not shown), the melting point lay within 172 to 173 °C. Compound `CC(O)CN(C)Cc1cc2c(=O)c(C(=O)NCc3ccc(Cl)cc3)cn(C)c2o1` (stereo not shown) showed a melting point of 152 °C. As for `Cn1cc(C(=O)NCc2ccc(Cl)cc2)c(=O)c2cc(CN3CC[C@@H](O)C3)oc21`, the melting point was in the range of 189 to 190 °C. As to `CN(Cc1cc2c(=O)c(C(=O)NCc3ccc(Cl)cc3)cn(C)c2o1)CC(O)c1ccccc1` (stereo not shown), the melting point was 118 to 121 °C. `CN(Cc1cc2c(=O)c(C(=O)NCc3ccc(Cl)cc3)cn(C)c2o1)CC(O)c1ccc(O)cc1` (stereo not shown): the melting point was in the range of 117 to 122 °C. As for `COc1cccc(C(O)CN(C)Cc2cc3c(=O)c(C(=O)NCc4ccc(Cl)cc4)cn(C)c3o2)c1` (stereo not shown), the melting point fell in the range of 116 to 120 °C. With `CN(Cc1cc2c(=O)c(C(=O)NCc3ccc(Cl)cc3)cn(C)c2o1)CC(O)c1cccnc1` (stereo not shown), the melting point lay in the range of 145 to 149 °C. As for `Cc1ccc(C(O)CN(C)Cc2cc3c(=O)c(C(=O)NCc4ccc(Cl)cc4)cn(C)c3o2)o1` (stereo not shown), the figure is 130 to 132 °C; as for `CN(Cc1cc2c(=O)c(C(=O)NCc3ccc(Cl)cc3)cn(C)c2o1)CC(O)c1ccoc1` (stereo not shown), 93 to 97 °C; as for `CN(Cc1cc2c(=O)c(C(=O)NCc3ccc(Cl)cc3)cn(C)c2o1)CC(O)c1cc2ccccc2o1` (stereo not shown), 176 to 179 °C. The compound `CN(Cc1cc2c(=O)c(C(=O)NCc3ccc(Cl)cc3)cn(C)c2o1)CC(O)c1cccs1` (stereo not shown) came in with a melting point of 145 to 147 °C. Turning to `CN(Cc1cc2c(=O)c(C(=O)NCc3ccc(Cl)cc3)cn(C)c2o1)CC(O)c1ccc2ccccc2n1` (stereo not shown), the melting point was 154 to 159 °C (dec.).

With `CN(Cc1cc2c(=O)c(C(=O)NCc3ccc(Cl)cc3)cn(C)c2o1)CC(O)c1cccn1C` (stereo not shown), the melting point was 122 to 124 °C (dec.). With `CN(Cc1cc2c(=O)c(C(=O)NCc3ccc(Cl)cc3)cn(C)c2o1)CC(O)c1ccc(C#N)s1` (stereo not shown), the melting point is 190 to 195 °C (dec.). Take `CN(Cc1cc2c(=O)c(C(=O)NCc3ccc(Cl)cc3)cn(C)c2o1)CC(O)c1nccs1` (stereo not shown): the melting point lay within 114 to 116 °C. As for `CN(Cc1cc2c(=O)c(C(=O)NCc3ccc(Cl)cc3)cn(C)c2o1)CC(O)c1ccc(-c2ccccc2)o1` (stereo not shown), the figure is 115 to 119 °C; as for `Cc1cc(C(O)CN(C)Cc2cc3c(=O)c(C(=O)NCc4ccc(Cl)cc4)cn(C)c3o2)oc1C` (stereo not shown), 140 to 140.5 °C; as for `CN(Cc1cc2c(=O)c(C(=O)NCc3ccc(Cl)cc3)cn(C)c2o1)CC(O)c1cnccn1` (stereo not shown), 148 to 151 °C. `CN(Cc1cc2c(=O)c(C(=O)NCc3ccc(Cl)cc3)cn(C)c2o1)C[C@@H](O)c1ncccn1` returned a melting point of 127 to 129 °C. `CN(Cc1cc2c(=O)c(C(=O)NCc3ccc(Cl)cc3)cn(C)c2o1)CC(CO)c1ccccc1` (stereo not shown) registered a melting point of 141 to 148 °C. Compound `Cn1cc(C(=O)NCc2ccc(Cl)cc2)c(=O)c2ccoc21` had a melting point of 197 to 205 °C. On to `Cn1cc(C(=O)NCc2ccc(Cl)cc2)c(=O)c2cc(Br)oc21`, for which the melting point lay in the range of 232 to 233 °C. As for `Cn1cc(C(=O)NCc2ccc(Cl)cc2)c(=O)c2cc(C#CCCO)oc21`, the figure is 242 to 243 °C (dec.); as for `Cn1cc(C(=O)NCc2ccc(Cl)cc2)c(=O)c2cc(CCCCO)oc21`, 157 to 160 °C. Consider `Cn1cc(C(=O)NCc2ccc(Cl)cc2)c(=O)c2cc(C#CCCCO)oc21`, for which the melting point is 215 to 219 °C (dec.). `Cn1cc(C(=O)NCc2ccc(Cl)cc2)c(=O)c2cc(CCCCCO)oc21` returned a melting point of 151 to 152 °C. Regarding `Cn1cc(C(=O)NCc2ccc(Cl)cc2)c(=O)c2cc(C#CC(O)c3ccccc3)oc21` (stereo not shown), the melting point is 209 to 211 °C (dec.). With `Cn1cc(C(=O)NCc2ccc(Cl)cc2)c(=O)c2cc(C#CCC(O)c3ccccc3)oc21` (stereo not shown), the melting point is 202 to 203 °C (dec.). The same measure for `Cn1cc(C(=O)NCc2ccc(Cl)cc2)c(=O)c2cc(CO)oc21`: 229 to 230 °C; for `O=C(NCc1ccc(Cl)cc1)c1cc2c(O)c(C(=O)NCc3ccc(Cl)cc3)cnc2o1`: 230 to 245 °C; for `Cn1cc(C(=O)NCc2ccc(Cl)cc2)c(=O)c2cc(CN3CCC[C@@H]3[C@@H](O)c3ccccc3)oc21` (relative stereo): 141 to 150 °C (dec.). In turn, `CN(Cc1cc2c(=O)c(C(=O)NCc3ccc(Cl)cc3)cn(C)c2o1)CC(O)c1ccccn1` (stereo not shown) [41] came in with a melting point of 130 to 132 °C. Turning to `CN(Cc1cc2c(=O)c(C(=O)NCc3ccc(Cl)cc3)cn(C)c2o1)CC(O)c1ccccn1` (stereo not shown) [42], the melting point was 133 to 138 °C.

A word on the melting point: it is the temperature, or range, at which the solid turns liquid.
